Test results reported in US10736891B2, “Composition and method for treating chagas disease” (priority 2016, dated 2020).

Key:
[1] = Blood chemistries and liver biopsies under amiodarone/itraconazole, dogs
[2] = Blood chemistries and liver biopsies under amiodarone/itraconazole, monkeys
[3] = increase from 5 mg/kg to 10 mg/kg once daily; cited from earlier work
[4] = in vivo
Procedure: Accordingly, prior to additional testing, a dosage of Itraconazole and Amiodarone was prepared in accordance with the above example, but with nanomilling of the Itraconazole before formulating into pharmaceutical compositions and administration to patients. In this example, a suspension of itraconazole was prepared and then subject to milling using a media mill such as disclosed in Kumar et al., J. Pharm. Sci. 104:3018-3028 (2015), wherein Itraconazole (1%, w/v) was suspended in a desired concentration of an aqueous stabilizer solution, and the prepared suspension was stirred for 30 minutes or more for complete wetting of the drug by the stabilizer solution. The suspension (e.g., 150 mL) was then wet milled or wet grinded using a conventional wet milling or grinding device, namely one manufactured by Netzsch of Exton, Pa. Using this equipment, the mill is operated at a suitable speed, e.g., 2500 rpm in a continuous mode for a time suitable to reduce particle size to a range of 1 and 400 nm, e.g., 75 minutes. The temperature of the sample was maintained at below 25° C. during the process, and two cooling bath recirculators were used, including one attached to the milling device and the other attached to suspension recirculation chambers. […]

[5] = cited from earlier work
in vivo = conditions: human

Row | arrythmias [1] | hepatic effects (multiple blood chemistries) [1] | arrythmias [2] | hepatic effects (multiple blood chemistries) [2] | increase of bioavailability of itraconazole [4] [%] | Cmax (in vivo; 5 mg/kg) [ng/mL] | increase in plasma Itraconazole level compared with the Cmax of a previous study (Paniz-Mondolfi et al. 2009) (in vivo; 10 mg/kg) | Cmax (in vivo; po, 10 mg/kg) [ng/mL] | Compound | Itraconazole Cmax increase [3] | Itraconazole plasma level when given with food compared with without food [5]
1 | 0 | 0 | 0 | 0 |  |  |  |  | CCCCc1oc2ccccc2c1C(=O)c1cc(I)c(OCCN(CC)CC)c(I)c1 [Amiodarone] |  | 
2 |  |  |  |  | 2000 | 3550 | 5-6 fold | 13500 | CCC(C)n1ncn(-c2ccc(N3CCN(c4ccc(OCC5COC(Cn6cncn6)(c6ccc(Cl)cc6Cl)O5)cc4)CC3)cc2)c1=O (stereo not shown) [Itraconazole] | 5-6 fold | higher
